We go through six compounds from paper PMC8009417, “Selective killing of homologous recombination-deficient cancer cell lines by inhibitors of the RPA:RAD52 protein-protein interaction” (PLoS ONE, 2021).

The target in experiment [1] is RAD52 ssDNA binding domain. Also noted: method as in PMID 26548611. The note with it: read-out: IC50, allosteric inhibitor of the RAD52 ssDNA binding domain; cited from earlier work.
Experiment [2] relates to PARPi-resistant UWB1.289.SYr12 cells. In words: Cell viability assay (PrestoBlue, 72 h), UWB1.289.SYr12. It counts as cell-based. The following applies: Homo sapiens, estimated from the graphs. An excerpt:
(§1) BRCA1-deficient UWB1.289 cells corrected with wild-type BRCA1 gene (BRCA1+; closed triangle) and parental BRCA1-deficient UWB1.289 (BRCA1-; closed circle). Two PARPi-resistant cell lines derived from UWB1.289, UWB1.289.SYr12 (closed diamond) and UWB1.SYr13 (X), were also examined.
(§2) UWB1.289 (a gift from Dr. Lee Zou, Harvard Medical School, Boston, MA) were derived from a serous ovarian carcinoma with a germline BRCA1 mutation and a deletion of the wild-type allele. […] Two PARP-resistant cell lines, SYr12 and SYr13, were derived from the UWB1.289. The Mammary Epithelial growth media, along with SupplementMix solution for UWB1 cell lines, were obtained from PromoCell GmbH and mixed as described.
(§3) Cells were seeded 5 x 10^3 cells per well in 96-well plates in a 90 μL volume per well one day before treatment. Cells in 96-well plates were incubated with increasing concentrations of the compound or vehicle control (1% DMSO) for 72 hours. Each treatment plate contained nine concentrations of a compound in sextuplicate. Growth inhibition was determined using PrestoBlue reagent (Life Technologies, #A13261). Fluorescent measurements were taken using a Spectramax M5 plate reader (MDS). To assess cells’ replication in the absence of compounds as a control, six wells on each plate were treated with vehicle to be read in triplicate at the initial treatment day (T0) and at 72-hour read (T100).

Experiment [3] concerns the target T1, RPA:RAD52 protein-protein interaction (Homo sapiens, UniProt P43351).
T1 construct: made in house
T1 sequence (P43351 1-418): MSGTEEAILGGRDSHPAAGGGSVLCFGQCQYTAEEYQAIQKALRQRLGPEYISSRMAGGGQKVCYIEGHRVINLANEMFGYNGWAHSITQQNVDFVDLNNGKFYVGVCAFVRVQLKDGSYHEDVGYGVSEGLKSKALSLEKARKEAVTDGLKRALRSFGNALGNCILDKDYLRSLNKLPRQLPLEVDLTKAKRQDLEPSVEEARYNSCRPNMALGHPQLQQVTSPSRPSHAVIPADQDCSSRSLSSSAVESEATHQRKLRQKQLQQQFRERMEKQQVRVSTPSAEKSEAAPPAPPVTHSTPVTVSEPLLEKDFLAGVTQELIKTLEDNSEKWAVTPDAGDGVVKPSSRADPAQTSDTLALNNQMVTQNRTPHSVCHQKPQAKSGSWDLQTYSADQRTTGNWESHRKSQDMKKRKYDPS
In words: FluorIA (Fluorescence-based protein-protein Interaction Assay), GFP-RAD52 binding to plate-coated RPA. The following applies: polynomial curve fitting; 15 dose concentrations 0.03–500 μM, triplicate; RAD52(1–303) positive control; read-out: EC50 in FluorIA (inhibition of RPA:RAD52 PPI). Here is the method: A newly developed fluorescence-based assay for detecting protein-protein interactions, FluorIA was used to identify SMIs of RPA:RAD52 PPI. The detailed FluorIA protocol is published elsewhere. Briefly, 384-well plates (Thermo Fisher Scientific, #460518) were coated with purified RPA. Then compounds or controls were added and incubated with freshly prepared GFP-RAD52. RAD52(1–303) without GFP-tag and buffer (including DMSO) only were used as controls. Then the relative fluorescence (RFU) was measured using a POLARstar OPTIMA plate reader (BMG LABTECH) on emptied plates at an excitation/emission (for eGFP) of 485/520 nm at 2500 gain setting.
Three chemical libraries the 355-member SelleckChem Kinase Inhibitor Library, the 1200-member Prestwick Chemical Library, and the 100,000-member ChemBridge library were used for the screening. The screening of the SelleckChem Kinase Inhibitor and the Prestwick libraries were performed at 10 and 100 μM each in duplicate. The screening of the ChemBridge library was conducted at 100 μM. […] The statistical criteria for a hit were fully described in Al-Mugotir et al.. Each hit was verified in triplicate at 10 and 100 μM.
The in vitro EC50 value of each hit was determined with FluorIA. The chemicals were serially diluted by two-fold increments from 0.030 to 500 μM and analyzed in triplicate with FluorIA. RAD52(1–303) was used as a positive control and buffer with DMSO was used as a negative control. Candidate SMIs with strong inhibition were purchased, and a 1D NMR analysis was carried out to verify their identities. The eleven candidates SMIs were purchased as follows: 5137134, 5246481, 52614577,5316833, 5373030, and 7623574 from Chembridge HIT2LEAD, 5989499 from Wuxi lab network, 5375405 from Aronis, quinacrine and mitoxantrone from Sigma Aldrich, and doxorubicin from LC labs. D-I03 was purchased from Molport. Their effectiveness in inhibiting the RPA:RAD52 PPI was confirmed after purchase with the FluorIA as described above (S1 Fig).
Supplementary file pone.0248941.s001.tif: S1 Fig Validation experiments of eleven hits with the FlourIA. Sixteen treatment concentrations were used (0.030–500 μM) increasing by two-fold increments of each molecule/drug obtained as a hit in HTS FluorIA. RAD52(1–303) without GFP-tag and buffer (including DMSO) only were used as controls. Percent inhibition was calculated as follows: [(RFUSMI—RFURAD52(1–303)) / (RFUDMSO—RFURAD52(1–303))]*100, where RFU is relative fluorescence unit. An average of triplicate measurements was used. The treatment points for quinacrine and doxorubicin beyond 125 μM were showing characteristics of aggregation and were not used. (TIF) Click here for additional data file.

The test system of experiment [4] is BRCA2-revertant PE01 C4-2 cells (BRCA2+). In words: Cell viability assay (PrestoBlue, 72 h), PE01 C4-2. The note with it: Homo sapiens, C4-2, 72 h, read-out: EC50, cell viability.
Experiment [5] has as its system HCC1937 cells corrected with wild-type BRCA1 gene (BRCA1+). The experiment in a line: Cell viability assay (PrestoBlue, 72 h), HCC1937+BRCA1. It counts as cell-based. The following applies: Homo sapiens, estimated from the graphs. Here is the method:
(§4) Fig 2 BRCA1-deficient HCC1937 breast cancer cell line survival assay. BRCA1-deficient HCC1937 cells corrected with wild-type BRCA1 gene (BRCA1+; closed triangle), and with an empty vector (BRCA1-; closed circle) were examined. For each experiment (Figs 2–4), cell lines were treated with nine concentrations of (A) quinacrine, (B) mitoxantrone, and (C) doxorubicin in 96-well culture plates at 5x10^3 cell/well density. Each treatment point was made in sextuplicate. Treated cells were incubated for 72 hours at 37°C before assessing cell viability using PrestoBlue. Data were normalized to vehicle control. The experiment was repeated three times. Error bars indicate the standard deviation.
(§5) The HCC1937 cell line (a gift from Dr. Simon Powell Memorial Sloan Kettering (MSK), New York) was derived from a mammary gland primary ductal carcinoma at the early onset of a tumor. This TNBC patient carried a germline mutation in BRCA1, resulting in carboxy-terminal truncated protein and loss of the second BRCA1 allele. BRCA1-restored and empty vector cell lines were also obtained by transfection of a vector containing a full-length human BRCA1 cDNA or an empty vector, respectively. The HCC1937 cell lines were cultured as described.
as §3

The subject of experiment [6] is BRCA1-deficient HCC1937 breast cancer cells (empty vector, BRCA1-). In words: Cell viability assay (PrestoBlue, 72 h), HCC1937 with empty vector. It counts as cell-based. The note with it: Homo sapiens, estimated from the graphs. The protocol:
as §4, §5, §3

In experiment [7] the test system is PARPi-resistant UWB1.SYr13 cells. The experiment in a line: Cell viability assay (PrestoBlue, 72 h), UWB1.SYr13. Format: cell-based. The note with it: Homo sapiens, estimated from the graphs.
From the text: as §1, §2, §3

In experiment [8] the test system is BRCA2-deficient PE01 ovarian cancer cells (BRCA2-). The experiment in a line: Cell viability assay (PrestoBlue, 72 h), PE01. Format: cell-based. The note with it: Homo sapiens, estimated from the graphs. The protocol:
BRCA2-deficient PE01 cell line (a gift from Dr. Toshiyasu Taniguchi, Tokai University, Japan) were derived from an ovarian cancer patient. BRCA2-proficient “revertant” cell line, C4-2 is one of eight clones derived from PE01 that has acquired resistance to both cisplatin and PARPi due to a secondary mutation that restored the BRCA2 function. PE01 and PE01 C4-2 were grown and maintained in DMEM high glucose (Hyclone) supplemented with 10% Fetal Bovine Serum (FBS, Invitrogen).
as §3

The test system of experiment [9] is BRCA1-deficient UWB1.289 ovarian cancer cells (BRCA1-). In words: Cell viability assay (PrestoBlue, 72 h), UWB1.289. It counts as cell-based. The following applies: Homo sapiens, UWB1289, estimated from the graphs.
From the text: as §1, §2, §3

For experiment [10], the system named is UWB1.289 cells corrected with wild-type BRCA1 gene (BRCA1+). The experiment in a line: Cell viability assay (PrestoBlue, 72 h), UWB1.289+BRCA1. Format: cell-based. The note with it: Homo sapiens, UWB1289, estimated from the graphs.
From the text: as §1, §2, §3

The target of experiment [11] is RPA, endogenous in U2OS cells (human (endogenous in U2OS)) (UniProt P15927).

Several values for one entry are separate records, joined by “and”; a condition that tells them apart may be missing. Equal values may be shown once.

Sequence of RPA, endogenous in U2OS cells (human (endogenous in U2OS)) (P15927 whole entry, looked up): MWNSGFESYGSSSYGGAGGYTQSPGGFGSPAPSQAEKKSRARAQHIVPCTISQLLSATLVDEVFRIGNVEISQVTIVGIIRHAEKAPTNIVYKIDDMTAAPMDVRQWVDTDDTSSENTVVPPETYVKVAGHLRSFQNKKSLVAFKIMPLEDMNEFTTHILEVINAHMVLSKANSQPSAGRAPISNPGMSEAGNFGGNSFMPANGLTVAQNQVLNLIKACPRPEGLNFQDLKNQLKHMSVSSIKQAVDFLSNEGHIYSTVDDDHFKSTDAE

For the compound `NC(Cc1cc(O)c(O)cc1O)C(=O)O` (racemic) [6-hydroxy-DL-dopa], the IC50 (usually the point on the concentration scale where inhibition reaches its midpoint) in [1] was 1.1 µM.
On to `COc1cccc2c1C(=O)c1c(O)c3c(c(O)c1C2=O)C[C@@](O)(C(=O)CO)C[C@@H]3O[C@H]1C[C@H](N)[C@H](O)[C@H](C)O1` [Doxorubicin, doxorubicin], for which the EC50 (commonly the concentration at which the effect is half-maximal) in experiment [2] is 0.8 µM; in experiment [3] it was 10.1 µM; in [4], 0.7 µM; in experiment [5], 1.5 µM; in experiment [6] it was 0.3 µM; in experiment [7], 2.5 µM. The EC50 was 0.05 µM in experiment [8], 0.3 µM in [9] and 2.5 µM in experiment [10].
In the case of `CCN(CC)CCCC(C)Nc1c2ccc(Cl)cc2nc2ccc(OC)cc12` (stereo not shown) [Quinacrine, quinacrine], the EC50 in [2] is more than 10 µM; in [3], 97.7 µM; in experiment [4] it was 4.5 µM; in [5] it was 4.6 µM; in [6] it was 1.7 µM; in experiment [7], more than 10 µM. Further, the results for the EC50 in experiment [8], in [9] and in experiment [10] were 3.8 µM, 5.4 µM and more than 10 µM, respectively.
As to `Nc1cc(S(=O)(=O)O)cc2cc(S(=O)(=O)O)cc(O)c12` [compound 5137134], in experiment [3], the EC50 was 105 µM.
As for `Cc1cc2nc3ccc(N(C)C)cc3nc2cc1N` [compound 5316833], the EC50 in [3] is 66 µM and 66.2 µM.
Take “RAD52, endogenous in U2OS cells (from UniProt P43351 1-418) (natural protein)”: the inhibition of single-strand annealing (SA-GFP reporter in U2OS-SA cells, FACS) by mitoxantrone, an inhibitor of the RPA:RAD52 interaction, at 4 nM in [11] worked out at 72%.
